Data as given in patent US10287253B2, “Substituted pyrimidines containing acidic groups as TLR7 modulators” (Apros Therapeutics, Inc., priority 2016, dated 2019).

What was measured:
human TLR7 (hTLR7) = human TLR7 (hTLR7) (Homo sapiens (Human), UniProt Q9NYK1); assay: HEK TLR7 assay (HEK-Blue hTLR7 cells, NF-kB/AP-1 SEAP reporter); assay type: cell-based; settings: for EC50: HEK-Blue hTLR7 cells, 16 h incubation, SEAP read at 620-655 nm
Excerpt: HEK-Blue™ TLR7 cells were purchased from Invivogen (San Diego, Calif.). The following description was taken from the product information sheet.
“HEK-Blue™ hTLR7 cells are designed for studying the stimulation of human TLR7 (hTLR7) by monitoring the activation of NF-kB. HEK-Blue™ hTLR7 cells were obtained by co-transfection of the hTLR7 gene and an optimized secreted embryonic alkaline phosphatase (SEAP) reporter gene into HEK293 cells. The SEAP reporter gene is placed under the control of the IFN-b minimal promoter fused to five NF-kB and AP-1-binding sites. Stimulation with a TLR7 ligand activates NF-kB and AP-1 which induce the production of SEAP, which is detected by the HEK-Blue™ Detection cell culture medium.”
A typical assay protocol involved the following steps: • 1. Cells were cultured according to the product information sheet. • 2. 10 mM compound stock in DMSO were first diluted to 3 mM and then 3-fold serially diluted using DMSO to afford a 10-pt dilution. • 3. 3 μl of the diluted DMSO were added to 57 μl HEK-Blue™ Detection media for a further 20-fold dilution. • 4. 10 μl of the diluted compound in assay media were added into 40 μl cell culture (in HEK-Blue™ Detection media) in 384-well plate. Final cell concentration=8,000 cells per well. • 5. The plates were incubated at 37° C. in 5% CO2 for 16 h. SEAP was determined using a spectrophotometer at 620-655 nm.

[1] = Pharmacokinetics experiments: mouse liver-to-serum concentration (L:S); assay type: in vivo; settings: BALB/c mice, 10 mg/kg p.o., 5 hour post dose
Experimental: BALB/c mice were dosed p.o. with 10 mg/kg compound formulated in 0.5% carboxy methycellulose+0.5% Tween-80 suspension. Mice were bled retro-orbitally at different time points post dose. Blood was processed into serum by centrifugation followed by protein precipitation, reverse-phase gradient elution and MRM detection via ESI+mass spectrometry to determine compound concentration. Animals were sacrificed after the final blood collection (5 hour), liver removed and flash frozen in liquid nitrogen for tissue PK analyses. The liver-to-serum concentration (L:S) at 5 hour post dose is one parameter for identifying compounds with potential enrichment in liver.
Mouse liver-to-serum concentration (L:S) table below provides results.

Sequence of human TLR7 (hTLR7) (Q9NYK1 27-1049): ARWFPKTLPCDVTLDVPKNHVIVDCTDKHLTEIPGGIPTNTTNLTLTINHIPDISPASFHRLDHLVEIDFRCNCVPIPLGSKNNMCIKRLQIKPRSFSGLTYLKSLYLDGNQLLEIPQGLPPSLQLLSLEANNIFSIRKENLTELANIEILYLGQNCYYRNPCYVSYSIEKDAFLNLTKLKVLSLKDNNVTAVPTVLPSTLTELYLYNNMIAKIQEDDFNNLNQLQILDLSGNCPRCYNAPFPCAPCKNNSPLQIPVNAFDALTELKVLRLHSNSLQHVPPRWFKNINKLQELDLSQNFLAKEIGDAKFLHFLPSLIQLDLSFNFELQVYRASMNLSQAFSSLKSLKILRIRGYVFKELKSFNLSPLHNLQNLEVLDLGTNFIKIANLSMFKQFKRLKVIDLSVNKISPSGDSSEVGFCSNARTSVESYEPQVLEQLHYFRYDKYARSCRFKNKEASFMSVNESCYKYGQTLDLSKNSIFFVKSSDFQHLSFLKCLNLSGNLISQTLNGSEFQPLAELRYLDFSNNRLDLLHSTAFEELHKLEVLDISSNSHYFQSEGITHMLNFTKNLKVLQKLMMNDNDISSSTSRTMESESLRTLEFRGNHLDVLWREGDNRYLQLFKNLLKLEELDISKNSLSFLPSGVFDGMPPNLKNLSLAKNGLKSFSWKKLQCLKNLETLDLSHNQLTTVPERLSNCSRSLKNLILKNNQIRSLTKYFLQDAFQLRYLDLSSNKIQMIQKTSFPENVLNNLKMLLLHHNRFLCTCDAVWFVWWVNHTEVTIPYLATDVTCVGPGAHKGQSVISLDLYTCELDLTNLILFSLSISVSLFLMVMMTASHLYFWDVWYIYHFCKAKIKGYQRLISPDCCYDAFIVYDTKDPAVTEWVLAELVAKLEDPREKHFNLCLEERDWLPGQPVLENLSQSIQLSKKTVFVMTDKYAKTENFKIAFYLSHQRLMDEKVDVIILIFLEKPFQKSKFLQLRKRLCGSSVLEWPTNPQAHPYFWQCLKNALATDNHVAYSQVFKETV

CCCCNc1nc(N)nc(C)c1Cc1cc(Cc2nn[nH]n2)ccc1OC [Compound 3, 5-(5-((2H-tetrazol-5-yl)methyl)-2-methoxybenzyl)-N4-butyl-6-methylpyrimidine-2,4-diamine]
EC50 (human TLR7 (hTLR7)): 100 to 1000 nM | L:S at 5 hr (liver-to-serum concentration) [1]: A (A = >100 represents high liver-enrichment)

CCCCNc1nc(N)nc(CCC(=O)O)c1Cc1cc(Cc2nn[nH]n2)ccc1OC [Compound 40, 3-(5-(5-((2H-tetrazol-5-yl)methyl)-2-methoxybenzyl)-2-amino-6-(butylamino)pyrimidin-4-yl)propanoic acid]
EC50 (human TLR7 (hTLR7)): 100 to 1000 nM | L:S at 5 hr (liver-to-serum concentration) [1]: A (A = >100 represents high liver-enrichment)

CCCCNc1nc(N)nc(C)c1Cc1cc(-c2nn[nH]n2)ccc1OC [Compound 11, N4-butyl-5-(2-methoxy-5-(2H-tetrazol-5-yl)benzyl)-6-methylpyrimidine-2,4-diamine]
EC50 (human TLR7 (hTLR7)): 100 to 1000 nM | L:S at 5 hr (liver-to-serum concentration) [1]: A (A = >100 represents high liver-enrichment)

CCCC[C@@H](CCOC)Nc1nc(N)nc(C)c1Cc1cc(Cc2nn[nH]n2)ccc1OC [Compound 32, (S)-5-(5-((2H-tetrazol-5-yl)methyl)-2-methoxybenzyl)-N^4-(1-methoxyheptan-3-yl)-6-methylpyrimidine-2,4-diamine]
EC50 (human TLR7 (hTLR7)): < 100 nM | L:S at 5 hr (liver-to-serum concentration) [1]: A (A = >100 represents high liver-enrichment)

CCCC[C@@H](CC(=O)O)Nc1nc(N)nc(C)c1Cc1cc(C(C)(C)C(=O)O)ccc1OC [Compound 42, (S)-3-((2-amino-5-(5-(2-carboxypropan-2-yl)-2-methoxybenzyl)-6-methylpyrimidin-4-yl)amino)heptanoic acid]
EC50 (human TLR7 (hTLR7)): 100 to 1000 nM | L:S at 5 hr (liver-to-serum concentration) [1]: A (A = >100 represents high liver-enrichment)

CCCC[C@@H](CCO)Nc1nc(N)nc(C)c1Cc1cc(Cc2nn[nH]n2)ccc1OC [Compound 18, (S)-3-((5-(5-((2H-tetrazol-5-yl)methyl)-2-methoxybenzyl)-2-amino-6-methylpyrimidin-4-yl)amino)heptan-1-ol]
EC50 (human TLR7 (hTLR7)): < 100 nM | L:S at 5 hr (liver-to-serum concentration) [1]: A (A = >100 represents high liver-enrichment)

CCCCNc1nc(N)nc(C)c1Cc1cc(S(=O)(=O)O)ccc1OC [Compound 17, 3-((2-amino-4-(butylamino)-6-methylpyrimidin-5-yl)methyl)-4-methoxybenzenesulfonic acid]
EC50 (human TLR7 (hTLR7)): < 100 nM | L:S at 5 hr (liver-to-serum concentration) [1]: B (B = 10-100 represents moderate liver-enrichment)

CCCCNc1nc(N)nc(C)c1Cc1cc(P(=O)(O)O)ccc1OC [Compound 12, (3-((2-amino-4-(butylamino)-6-methylpyrimidin-5-yl)methyl)-4-methoxyphenyl)phosphonic acid]
EC50 (human TLR7 (hTLR7)): 100 to 1000 nM | L:S at 5 hr (liver-to-serum concentration) [1]: B (B = 10-100 represents moderate liver-enrichment)

CCCC[C@@H](CC(=O)O)Nc1nc(N)nc(C)c1Cc1cc(Cc2nn[nH]n2)ccc1OC [Compound 20, (S)-3-((5-(5-((2H-tetrazol-5-yl)methyl)-2-methoxybenzyl)-2-amino-6-methylpyrimidin-4-yl)amino)heptanoic acid]
potency of (S)-enantiomer relative to (R)-enantiomer (Compound 20C) in the HEK-TLR7 assay (human TLR7 (hTLR7); Compound 20 vs Compound 20C): > 10 fold | EC50 (human TLR7 (hTLR7)): 100 to 1000 nM | L:S at 5 hr (liver-to-serum concentration) [1]: A (A = >100 represents high liver-enrichment)

CCCC[C@@H](CCS(C)(=O)=O)Nc1nc(N)nc(C)c1Cc1cc(Cc2nn[nH]n2)ccc1OC [Compound 23, (S)-5-(5-((2H-tetrazol-5-yl)methyl)-2-methoxybenzyl)-6-methyl-N^4-(1-(methylsulfonyl)heptan-3-yl)pyrimidine-2,4-diamine]
L:S at 5 hr (liver-to-serum concentration) [1]: A (A = >100 represents high liver-enrichment)

CCCC[C@@H](CC(=O)O)Nc1nc(N)nc(CCC(=O)O)c1Cc1cc(C(C)(C)C(=O)O)ccc1OC [Compound 45, (S)-3-((2-amino-6-(2-carboxyethyl)-5-(5-(2-carboxypropan-2-yl)-2-methoxy-benzyl)pyrimidin-4-yl)amino)heptanoic acid]
EC50 (human TLR7 (hTLR7)): 1000 to 10000 nM | L:S at 5 hr (liver-to-serum concentration) [1]: A (A = >100 represents high liver-enrichment)

CCCCNc1nc(N)nc(CCC(=O)O)c1Cc1cc(C(C)(C)C(=O)O)ccc1OC [Compound 43, 2-(3-((2-amino-4-(butylamino)-6-(2-carboxyethyl)pyrimidin-5-yl)methyl)-4-methoxy-phenyl)-2-methylpropanoic acid]
EC50 (human TLR7 (hTLR7)): 1000 to 10000 nM | L:S at 5 hr (liver-to-serum concentration) [1]: A (A = >100 represents high liver-enrichment)

CCCC[C@@H](CCSC)Nc1nc(N)nc(C)c1Cc1cc(-c2nn[nH]n2)ccc1OC [Compound 34, (S)-5-(2-methoxy-5-(2H-tetrazol-5-yl)benzyl)-6-methyl-N^4-(1-(methylthio)heptan-3-yl)pyrimidine-2,4-diamine]
EC50 (human TLR7 (hTLR7)): < 100 nM | L:S at 5 hr (liver-to-serum concentration) [1]: A (A = >100 represents high liver-enrichment)

CCCCNc1nc(N)nc(C)c1Cc1cc(C2(c3nn[nH]n3)CC2)ccc1OC [Compound 13, 5-(5-(1-(2H-tetrazol-5-yl)cyclopropyl)-2-methoxybenzyl)-N4-butyl-6-methylpyrimidine-2,4-diamine]
EC50 (human TLR7 (hTLR7)): 100 to 1000 nM | L:S at 5 hr (liver-to-serum concentration) [1]: B (B = 10-100 represents moderate liver-enrichment)

CCCC[C@@H](CCSC)Nc1nc(N)nc(C)c1Cc1cc(C(C)(C)C(=O)O)ccc1OC [Compound 33, (S)-2-(3-((2-amino-4-methyl-6-((1-(methylthio)heptan-3-yl)amino)pyrimidin-5-yl)methyl)-4-methoxyphenyl)-2-methylpropanoic acid]
EC50 (human TLR7 (hTLR7)): < 100 nM | L:S at 5 hr (liver-to-serum concentration) [1]: A (A = >100 represents high liver-enrichment)

CCCCNc1nc(N)nc(C)c1Cc1cc(B(O)O)ccc1OC [Compound 24, (3-((2-amino-4-(butylamino)-6-methylpyrimidin-5-yl)methyl)-4-methoxyphenyl)boronic acid]
EC50 (human TLR7 (hTLR7)): < 100 nM | L:S at 5 hr (liver-to-serum concentration) [1]: B (B = 10-100 represents moderate liver-enrichment)

CCCC[C@@H](CC(=O)O)Nc1nc(N)nc(CCC(=O)O)c1Cc1cc(Cc2nn[nH]n2)ccc1OC [Compound 46, (S)-3-((5-(5-((2H-tetrazol-5-yl)methyl)-2-methoxybenzyl)-2-amino-6-(2-carboxyethyl)-pyrimidin-4-yl)amino)heptanoic acid]
EC50 (human TLR7 (hTLR7)): 100 to 1000 nM | L:S at 5 hr (liver-to-serum concentration) [1]: B (B = 10-100 represents moderate liver-enrichment)

CCCCNc1nc(N)nc(C)c1Cc1cc(C(C)(C)c2nn[nH]n2)ccc1OC [Compound 10, 5-(5-(2-(2H-tetrazol-5-yl)propan-2-yl)-2-methoxybenzyl)-N4-butyl-6-methylpyrimidine-2,4-diamine]
EC50 (human TLR7 (hTLR7)): 100 to 1000 nM | L:S at 5 hr (liver-to-serum concentration) [1]: B (B = 10-100 represents moderate liver-enrichment)

CCCCNc1nc(N)nc(C)c1Cc1cc(C(=O)NCCCP(=O)(O)O)ccc1OC [Compound 30, (3-(3-((2-amino-4-(butylamino)-6-methylpyrimidin-5-yl)methyl)-4-methoxybenzamido)propyl)phosphonic acid]
EC50 (human TLR7 (hTLR7)): 100 to 1000 nM | L:S at 5 hr (liver-to-serum concentration) [1]: A (A = >100 represents high liver-enrichment)

CCCC[C@@H](CCSC)Nc1nc(N)nc(C)c1Cc1cc(Cc2nn[nH]n2)ccc1OC [Compound 22, (S)-5-(5-((2H-tetrazol-5-yl)methyl)-2-methoxybenzyl)-6-methyl-N^4-(1-(methylthio)heptan-3-yl)pyrimidine-2,4-diamine]
L:S at 5 hr (liver-to-serum concentration) [1]: A (A = >100 represents high liver-enrichment)
